Structures are written as SMILES.

Chain of Cell division control protein 42 homolog (P60953 whole entry): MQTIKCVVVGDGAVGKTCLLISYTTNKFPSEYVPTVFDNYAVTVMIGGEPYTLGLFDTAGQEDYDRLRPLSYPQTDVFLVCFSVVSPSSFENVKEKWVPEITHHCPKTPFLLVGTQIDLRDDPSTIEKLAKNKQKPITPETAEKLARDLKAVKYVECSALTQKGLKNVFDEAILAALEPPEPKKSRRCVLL

The assay has as its target Cell division control protein 42 homolog (Homo sapiens, UniProt P60953). The experiment in a line: Cdc42 activated mutant GTP-binding inhibitors, SAR follow-up, biochemical, bead-based multiplex flow cytometry, additional SAR set (AID 2021).
Regarding `O=C1Nc2c(Cl)cccc2C1=C1Nc2ccccc2C1=O`, the EC50 turned out to be 30 µM.
To `O=C1Nc2c(Br)cccc2C1=C1Nc2ccccc2C1=O` belongs 30 µM.
To `O=C1Nc2c(F)cccc2C1=C1Nc2ccccc2C1=O` belongs 30 µM; to `O=C1NC(=O)/C(=C2/C(=O)Nc3ccccc32)N1`, 5.26 µM; to `O=C1Nc2ccc(Br)cc2C1=C1Nc2ccccc2C1=O`, 30 µM.
For `O=C1Nc2ccccc2/C1=C1/Nc2ccccc2C1=O` [2-[(3Z)-2-oxo-2,3-dihydro-1H-indol-3-ylidene]-2,3-dihydro-1H-indol-3-one] the value was 30 µM; for `O=C1N=c2ccccc2=C1c1[nH]c2ccccc2c1NO` [3-[3-(hydroxyamino)-1H-indol-2-yl]-2-indolone], 30 µM; for `O=C1N=c2ccc(Br)cc2=C1c1[nH]c2ccccc2c1NO` [5-bromanyl-3-[3-(oxidanylamino)-1H-indol-2-yl]indol-2-one], 30 µM.
As for `O=C1N=c2c(Br)cccc2=C1c1[nH]c2ccccc2c1NO` [7-bromanyl-3-[3-(oxidanylamino)-1H-indol-2-yl]indol-2-one], the EC50 was 55.1 µM. Compared with the last compound, the EC50 is about 1.8-fold higher.
To `O=C1N=c2c(Cl)cccc2=C1c1[nH]c2ccccc2c1NO` [7-chloro-3-[3-(hydroxyamino)-1H-indol-2-yl]-2-indolone] belongs 30 µM; to `O=C1N=c2c(F)cccc2=C1c1[nH]c2ccccc2c1NO` [7-fluoro-3-[3-(hydroxyamino)-1H-indol-2-yl]-2-indolone], 30 µM.
`O=C1NC(=S)N/C1=C1\C(=O)Nc2ccccc21` [(3Z)-3-(5-oxo-2-sulfanylideneimidazolidin-4-ylidene)-1H-indol-2-one] had an EC50 of 30 µM.

Values taken from BindingDB's records for doi:10.7270/Q26H4FT9 (Nmmlsc, 2009).
